From patent US9005575B2, “Arg-Gly-Asp-conjugated alpha-melanocyte stimulating hormone hybrid peptide for use in diagnosing and treating melanoma, including metastatic melanoma and methods related to same” (STC.UNM, priority 2009, dated 2015)
Like-named read-outs stand apart in the source and are kept apart here. Positions of bridges follow the written chain, without caps; N, C: chain ends. Non-standard residues stand in square brackets, D forms with d. Residues, ends and D or L forms follow the SMILES beside them.

What was measured:
[1] = system: B16/F1 murine melanoma cells; experiment: Specificity of cellular uptake (peptide blockade); type: cell-based; settings: 0.1 μM of blocking peptide, 25° C., 120 min
Procedure: The specificity of cell binding was determined by incubating ^99mTc-RGD-Lys-(Arg^11)CCMSH with or without non-radioactive peptides. After being washed once with binding media, B16/F1 cells in 24-well cell culture plates were incubated with approximately 200,000 cpm of HPLC purified ^99mTc-RGD-Lys-(Arg^11)CCMSH at 25° C. for 120 min (n=4) in the presence of 0.1 μM of RGD-Lys-(Arg^11)CCMSH, NDP-MSH, (Arg^11)CCMSH or RGD in 0.5 ml of binding media, respectively. The reaction media were aspirated after the incubation. The cells were rinsed twice with 0.5 ml of ice-cold pH 7.4, 0.2% BSA/0.01 M PBS and lysed in 0.5 ml of 1 N NaOH for 5 min. The activities associated with cells were measured in a gamma counter. Statistical analysis was performed using the Student's t-test for unpaired data.
The specificity of cellular uptake was determined by incubating ^99mTc-RGD-Arg-(Arg^11)CCMSH with or without non-radioactive peptides. After being washed once with binding medium, B16/F1 cells in 24-well cell culture plates were incubated with approximately 200,000 cpm of HPLC purified ^99mTc-RGD-Arg-(Arg^11)CCMSH at 25° C. for 120 min (n=3) in the presence of 0.1 μM of RGD-Arg-(Arg^11)CCMSH, (Arg^11)CCMSH, RGD or no peptide blockade in 0.5 mL of binding medium, respectively. The reaction medium was aspirated after the incubation. The cells were rinsed twice with 0.5 mL of ice-cold pH 7.4, 0.2% BSA/0.01 M PBS and lysed in 0.5 mL of 1 N NaOH for 5 min. The activities associated with cells were measured in a gamma counter.

MC1 receptor [2] = target: T1, MC1 receptor (Mus musculus, UniProt Q01727); settings: literature value (ref. 8); read-out: MC1 receptor binding affinity; cited from earlier work
T1 construct: host or cells: B16/F1 murine melanoma cells

B16/F1 melanoma cells = experiment: Clonogenic cytotoxicity; type: cell-based, murine; settings: 6 days post the treatment; for Decrease in clonogenic survival compared to untreated group: 0.1 μM (100 nM), 3 h incubation
Procedure: To determine whether the replacement of the Lys linker with Arg linker affected the clonogenic cytotoxicity of the hybrid peptide, we examined the clonogenic cytotoxic effect of RGD-Arg-(Arg^11)CCMSH in B16/F1 melanoma cells according to our published procedure (17). The B16/F1 cells were seeded in a 6-well plate (200 cells/well) and incubated at 37° C. overnight. […] Control cells were only incubated in the culture medium. After the incubation, the cells were washed with PBS twice and allowed to form colonies over 6 days in the culture medium. The medium was changed every other day. After 6 days, the cells were fixed with methanol:glacial acetic acid (3:1), stained with hematoxylin and visually examined under microscope for survival. Colonies contained more than 50 cells were scored as survivors.

MC1 receptor [3] = target: T1, MC1 receptor; experiment: In vitro competitive binding assay in B16/F1 melanoma cells; design: species or system murine; settings: competition with ^125I-(Tyr^2)-NDP-MSH, 25° C., 2 h, read-out: IC50 value (MC1 receptor binding affinity)
Procedure: The IC50 value of RGD-Lys-(Arg^11)CCMSH was determined according to our previously published procedure (27). B16/F1 cells were harvested and seeded into a 24-well cell culture plate (5×10^5/well) and incubated at 37° C. overnight. After being washed with binding media (MEM with 25 mM HEPES, pH 7.4, 0.2% BSA, 0.3 mM 1,10-phenathroline), the cells were incubated at room temperature (25° C.) for 2 h with approximately 40,000 counts per minute (cpm) of ^125I-(Tyr^2)-NDP-MSH in the presence of increasing concentrations (10^−12 to 10^−5 M) of RGD-Lys-(Arg^11)CCMSH in 0.3 ml of binding media. The reaction media were aspirated after the incubation. […] The activities associated with cells were measured in a Wallac 1480 automated gamma counter (PerkinElmer, NJ). The IC50 value for the peptide was calculated by fitting the data with nonlinear regression using Prism software (GraphPad Software, La Jolla, Calif.).
The IC50 value of RGD-Arg-(Arg^11)CCMSH was determined according to our previously published procedure (17). […] The activities associated with cells were measured in a Wallac 1480 automated gamma counter (PerkinElmer, NJ). The IC50 value for the peptide was calculated using Prism software (GraphPad Software, La Jolla, Calif.).

T1 sequence (Q01727 whole entry): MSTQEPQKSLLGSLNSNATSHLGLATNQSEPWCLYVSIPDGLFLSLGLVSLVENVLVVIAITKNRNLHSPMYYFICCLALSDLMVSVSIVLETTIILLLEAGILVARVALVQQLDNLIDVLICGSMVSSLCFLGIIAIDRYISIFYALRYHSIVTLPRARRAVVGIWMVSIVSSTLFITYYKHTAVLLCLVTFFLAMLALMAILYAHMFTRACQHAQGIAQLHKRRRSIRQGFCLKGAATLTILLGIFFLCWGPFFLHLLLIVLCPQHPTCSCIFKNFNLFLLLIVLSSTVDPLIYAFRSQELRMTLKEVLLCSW

Compound | Decrease of cellular uptake of ^99mTc-RGD-Arg-(Arg^11)CCMSH by peptide blockade [1] | IC50 (MC1 receptor [2]) | Decrease in clonogenic survival compared to untreated group (B16/F1 melanoma cells) | Decrease of cellular uptake of ^99mTc-RGD-Lys-(Arg^11)CCMSH by peptide blockade [1] | Decrease of clonogenic survival compared to untreated control (B16/F1 melanoma cells; 93 μmol, single treatment (3 h incubation), unpublished preliminary studies) | IC50 (MC1 receptor [3])
[Cys^3,4,10, D-Phe^7, Arg^11]α-MSH3-13 [(Arg^11)CCMSH, reference compound] | 78% | 1.7 nM | 11% | – | – | –
Cyclo(Arg-Gly-Asp-DPhe-Val) [RGD, reference compound] | didn't reduce | – | 7% | didn't reduce | – | –
CC(C)[C@H](NC(=O)[C@@H]1CCCN1C(=O)[C@H](CCCNC(=N)N)NC(=O)[C@H](CS)NC(=O)[C@H](Cc1c[nH]c2ccccc12)NC(=O)[C@H](CCCNC(=N)N)NC(=O)[C@@H](Cc1ccccc1)NC(=O)[C@H](Cc1c[nH]cn1)NC(=O)[C@H](CCC(=O)O)NC(=O)[C@H](CS)NC(=O)[C@H](CS)NC(=O)[C@H](CCCCN)NC(=O)[C@@H]1CC(=O)N[C@@H](CCCNC(=N)N)C(=O)NCC(=O)N[C@@H](CC(=O)O)C(=O)N[C@H](Cc2ccc(O)cc2)C(=O)N1)C(N)=O [RGD-Lys-(Arg^11)CCMSH] (RGD[dY]DKCCEH[dF]RWCRPV-NH2; lactam N-5; C-terminus assumed) | – | – | – | – | 65% | –
CC(C)[C@H](NC(=O)[C@@H]1CCCN1C(=O)[C@H](CCCNC(=N)N)NC(=O)[C@H](CS)NC(=O)[C@H](Cc1c[nH]c2ccccc12)NC(=O)[C@H](CCCNC(=N)N)NC(=O)[C@@H](Cc1ccccc1)NC(=O)[C@H](Cc1c[nH]cn1)NC(=O)[C@H](CCC(=O)O)NC(=O)[C@H](CS)NC(=O)[C@H](CS)NC(=O)[C@H](CCCNC(=N)N)NC(=O)[C@@H]1CC(=O)N[C@@H](CCCNC(=N)N)C(=O)NCC(=O)N[C@@H](CC(=O)O)C(=O)N[C@H](Cc2ccc(O)cc2)C(=O)N1)C(N)=O [RGD-Arg-(Arg^11)CCMSH] (RGD[dY]DRCCEH[dF]RWCRPV-NH2; lactam N-5; C-terminus assumed) | 76% | – | 62% | – | – | 0.7 nM
